Peptide text beside a SMILES is read from it.
Assays:
[1] = tested on: HCAVSMCs; test: Cytosolic vs. organelle bound peptide by digitonin semi-permeabilization; format: cell-based, human; conditions: Bafilomycin treatment
Method: In order to quantify the cytosolic bioavailability of the MK2i and HSP20 peptides a method to separate cytosolic and organelle bound (i.e. endosomal, lysosomal, golgi, etc.) peptide was adapted from the methods developed by Liu et a140. The procedure was optimized for this experiment based upon LDH release from HCAVSMCs treated with varying concentrations of digitonin (Calbiochem) in buffer (150 mM NaCl, 0.2 mM EDTA, 20 mM HEPES-NaOH (pH 7.4), 2 mM DTT and 2 mM MgCL2) on ice for 10 mins on a rotary shaker operating at 100 RPM (supplementary FIG. 3). A concentration of 25 μg/mL was then chosen as the optimal digitonin concentration for selective semi-permeabilization of the HCAVSMC membrane and subsequently used for the analysis of intracellular peptide distribution.
To quantify intracellular distribution of the MK2i and p-HSP20 peptides, HCAVSMCs were seeded into a 96 well plate at a density of 20,000 cells/cm2 and allowed to adhere overnight in complete growth medium. A portion of the cells were pretreated with 500 nM Bafilomycin A1 (Sigma) for 30 minutes, and the Bafilomycin was included in subsequent peptide/NP treatment and in the post-treatment incubation phase to inhibit endosomal acidification. […] Treatments were removed and cells were incubated in fresh medium with or without 500 nM Bafilomycin A1 for 6 hours. […]

[2] = tested on: human saphenous vein (HSV); test: Inhibition of phenylephrine-induced HSV contraction; conditions: 2 h treatment
Method: Prior to experiments, HSV viability was confirmed. HSV rings were weighed and their lengths recorded. […] The rings were stretched and the length progressively adjusted until maximal tension was obtained 49. Normalized reactivity was obtained by determining the passive length-tension relationship for each vessel segment. Rings were maintained at a resting tension of 1 g, which produces maximal responses to contractile agonists, as previously determined, and equilibrated for 2 h in buffer. Force measurements were obtained using a Radnoti Glass Technology (Monrovia, Calif.) force transducer (159901A) interfaced with a Powerlab data acquisition system and LabChart software (AD Instruments, Colorado Springs, Colo.).
HSV rings were initially isometrically contracted with 110 mM KCl (with equimolar replacement of NaCl in bicarbonate buffer), and the generated force was measured. 110 mM KCl causes membrane depolarization, leading to contraction of vessels containing functionally viable smooth muscle. […]
Viable HSV rings were washed, allowed to equilibrate in bicarbonate solution for 30 min, and then contracted with phenylephrine (PE, 1 μM). […] Treated HSV rings were then contracted with the same doses of PE, and the forces generated were again recorded. […]

[3] = tested on: HCAVSMCs; conditions: human, 72 h
Method: For MK2i-NP and HSP20-NP studies, An amine-reactive Alexa-488 succinimidyl ester (Life Technologies) was dissolved in DMSO and mixed at a 1 to 3 molar ratio with the MK2i or p-HSP20 peptide in 100 mM sodium bicarbonate buffer (pH=8.3) and allowed to react for 3 hours. Unreacted fluorophore and organic solvent were removed using a PD-10 miditrap G-10 desalting column, and the fluorescently labeled MK2i and p-HSP20 peptides were lyophilized. […] Similarly, PPAA was mixed with fluorescently labeled p-HSP20 at a CR of [NH3^+]/[COO^−]=1:3 and syringe filtered through a 0.45 μm PTFE filter to form fluorescent HSP20-NPs. HCAVSMCs were grown to 80-90% confluence, harvested, and seeded at 20,000 cells/well in a 24 well plate and allowed to adhere overnight. […] Following treatment, cells were washed 2× in PBS, and either immediately harvested or incubated in complete growth media for an additional 72 hours. Cells were harvested with 0.05% trypsin-EDTA, centrifuged, and suspended in 0.1% Trypan blue in PBS (−/−) for analysis on a FACSCalibur flow cytometer (Becton Dickinson) with BD CellQuest™ Pro software (V 5.2). Data was exported and analyzed with FlowJo software (V 7.6.4). All samples were run in triplicate.

[4] = in vitro; conditions: human, HCAVSMCs
Method: 200 μL of cell suspension (at 10,000 cells/well) were seeded onto 96-well plates to yield an approximate 70% confluence per well. Cells were allowed to adhere to the plate overnight. […] Treatments were subsequently removed and the cells were cultured in fresh complete growth medium for 24 hours. Cells were then washed 2× with PBS +/+ and cell viability was then determined by a CytoTox-ONE Homogenous Membrane Integrity assay (Promega) according to the manufacturer's protocol. Briefly, 100 μL of Ambion KDalert Lysis Buffer was added to each well, and then 100 μL of freshly prepared CytoTox-ONE reagent was added to each well. After 10 minutes of incubation, 50 μL of stop solution was added, and the fluorescence of each well (kλex=560 nm, λem, =590 nm) was determined with a TECAN Infinite M1000 Pro plate reader.

cytosolic fraction of internalized free peptide [1]: 7.36%±8.28%
intracellular peptide retention (% of initial uptake remaining) [3]: 35%
SMILES: CC(C)C[C@H](NC(=O)CNC(=O)[C@@H]1CCCN1C(=O)[C@H](CC(C)C)NC(=O)[C@@H]1CCCN1C(=O)[C@H](C)NC(=O)[C@H](COP(=O)(O)O)NC(=O)[C@H](C)NC(=O)[C@H](CCCNC(=N)N)NC(=O)[C@H](CCCNC(=N)N)NC(=O)[C@H](CC(C)C)NC(=O)[C@H](Cc1c[nH]c2ccccc12)NC(=O)[C@H](C)NC(=O)[C@H](CCCNC(=N)N)NC(=O)[C@H](C)NC(=O)[C@H](CCC(N)=O)NC(=O)[C@H](CCCNC(=N)N)NC(=O)[C@H](C)NC(=O)[C@H](C)NC(=O)[C@H](C)NC(=O)[C@H](CCCNC(=N)N)NC(=O)[C@H](C)NC(=O)[C@@H](N)Cc1ccc(O)cc1)C(=O)N[C@@H](CCCCN)C(=O)O [p-HSP20] (HELM PEPTIDE1{Y.A.R.A.A.A.R.Q.A.R.A.W.L.R.R.A.[O=C([C@H](COP(=O)(O)O)N[*:1])[*:2]].A.P.L.P.G.L.K}$$$$V2.0; N-terminus and C-terminus assumed)
PE-induced HSV contraction [2]: significantly inhibited
viability at 2 h, 500 µM [4]: 77%

From patent publication US10087225B2, “Formulation of MK2 inhibitor peptides” (MOERAE MATRIX, INC., priority 2015, dated 2018)
